Source: patent publication US20050272647A1, “Arthrodial cartilage extracellular matrix degradation inhibitor” (priority 2002, published 2005)
Structures can show the parent of a compound that is named as a salt.

Assays:
[1] = system: rabbit knee articular cartilage primary culture cells; test: PG destruction inhibitory activity in rabbit cartilage primary culture cell (stimulation with retinoic acid); conditions: Oryctolagus cuniculus, 48 h, read-out: PG degradation inhibition (%)
Procedure: After a rabbit (Japanese white race, male, 1.0 to 1.5 kg) was killed under excessive anesthesia, the knee joint was taken out and the cartilage layer on the articular surface was abraded and cut finely. […] After 3 days, the medium was replaced by 200 μl of DMEM/10% FBS medium containing 50 μg/ml ascorbic acid (hereinafter referred to as ascorbic acid medium) and two days of culture was further repeated twice. Thereafter, the rabbit knee articular cartilage primary culture cells were cultured in 200 μl of the ascorbic acid medium containing Na2 35SO4 of a final concentration of 10 μCi/ml for 3 days to achieve labeling, followed by washing with 200 μl of the ascorbic acid medium three times and 1 day of culture in 200 μl of the ascorbic medium. The culture was stimulated with all-trans retinoic acid (manufactured by Sigma) of a final concentration of 1 μM. A culture supernatant after 48 hours was recovered in an each amount of 20 μl and radioactivity was measured using Topcount (manufactured by Packard). The test compound was added simultaneously with the start of the stimulation and a PG degradation inhibitory activity was calculated as percentage where a group to which retinoic acid was not added was defined as 100% and a group to which retinoic acid was added was defined as 0%.

HDAC = conditions: literature value, cited from earlier work; for IC50: read-out: HDAC inhibitory activity (IC50 value); for HDAC inhibitory activity (order of magnitude): Nat. Rev. Drug Discov. 2002
[2] = system: rabbit cartilage primary culture cells; test: PG destruction inhibitory activity in rabbit cartilage primary culture cell (stimulation with IL-1); conditions: Oryctolagus cuniculus, 48 h, read-out: PG degradation inhibition (%)
Procedure: After a rabbit (Japanese white race, male, 1.0 to 1.5 kg) was killed under excessive anesthesia, the knee joint was taken out and the cartilage layer on the articular surface was abraded and cut finely. […] After 3 days, the medium was replaced by 200 μl of DMEM/10% FBS medium containing 50 μg/ml ascorbic acid (hereinafter referred to as ascorbic acid medium) and two days of culture was further repeated twice. Thereafter, the rabbit knee articular cartilage primary culture cells were cultured in 200 μl of the ascorbic acid medium containing Na2 35SO4 of a final concentration of 10 μCi/ml for 3 days to achieve labeling, followed by washing with 200 μl of the ascorbic acid medium three times and 1 day of culture in 200 μl of the ascorbic medium.
They were stimulated with human IL-1β (manufactured by R&D System) of a final concentration of 10 ng/ml. A culture supernatant after 48 hours was recovered in an each amount of 20 μl and radioactivity was measured using Topcount (manufactured by Packard). The test compound was added simultaneously with the start of the stimulation and a PG degradation inhibitory activity was calculated as percentage where a group to which IL-1 was not added was defined as 100% and a group to which IL-1 was added was defined as 0%.

[3] = system: histone deacetylase fraction; test: HDAC inhibitory activity, [3H]acetylhistone and histone deacetylase fraction (method of Yoshida et al.); format: biochemical; conditions: at 30 nM
Procedure: Specifically, the measurement can be conducted, using [^3H]acetylhistone and a histone deacetylase fraction prepared by the method described in the above reference, adding a test compound to a reaction solution containing [^3H]acetylhistone and DTT, mixing the histone deacetylase fraction after 1 hour of pre-incubation at room temperature, reacting them for 2 hours at room temperature, adding 1M hydrochloric acid and ethyl acetate thereto, and then measuring radioactivity in the ethyl acetate layer separated by centrifugation by a scintillation counter.

CCCC(=O)O [Butyric acid (Na salt), Butyric acid]
inhibition at 300 µM [1]: 27%
inhibition at 3000 µM [1]: 93%
IC50 (HDAC): 280000 nM
inhibition at 5000 µM [2]: 78%

CCCC(=O)O [butyric acid]
HDAC inhibitory activity (order of magnitude) (HDAC): mM order

CC(/C=C/C(=O)NO)=C\[C@@H](C)C(=O)c1ccc(N(C)C)cc1 [Trichostatin A]
inhibition at 0.1 µM [1]: 40%
inhibition at 1 µM [1]: 58%
IC50 (HDAC): 2.1 nM

C/C=C1\NC(=O)[C@H]2CSSCC/C=C/[C@H](CC(=O)N[C@H](C(C)C)C(=O)N2)OC(=O)[C@H](C(C)C)NC1=O [FK228]
inhibition at 0.01 µM [1]: 39%
inhibition at 0.1 µM [1]: 97%
inhibition at 0.03 µM [2]: 97%

CCCC(CCC)C(=O)O [Valproic acid (Na salt), Valproic acid]
inhibition at 300 µM [1]: 49%
inhibition at 1000 µM [1]: 46%
inhibition at 3000 µM [1]: 79%

O=C(/C=C/c1ccc(CN(CCO)CCc2c[nH]c3ccccc23)cc1)NO [NVP-LAQ824]
inhibition at 0.03 µM [1]: 26%
inhibition at 0.3 µM [1]: 90%
IC50 (HDAC): 30 nM

CC1NC(=O)CC2/C=C/CCSSCC(NC1=O)C(=O)NC(C(C)C)C(O)CC(=O)O2 (centres unmarked) [Compound A]
HDAC inhibition [3]: about 85%
inhibition at 0.001 µM [1]: 20%
inhibition at 0.01 µM [1]: 51%
inhibition at 0.1 µM [1]: 93%
inhibition at 1 µM [1]: 98%
inhibition at 0.0003 µM [2]: 6%
inhibition at 0.003 µM [2]: 39%
inhibition at 0.03 µM [2]: 61%

CCC(=O)CCCCC[C@@H]1NC(=O)[C@H]2CCCCN2C(=O)[C@H]([C@@H](C)CC)NC(=O)[C@H](Cc2cn(OC)c3ccccc23)NC1=O [Apicidin]
inhibition at 0.03 µM [1]: 25%
inhibition at 0.3 µM [1]: 92%

Nc1ccccc1NC(=O)c1ccc(CNC(=O)OCc2cccnc2)cc1 [MS-27-275]
IC50 (HDAC): 2000 nM

CCCC(CCC)C(=O)O [Valproic acid]
HDAC inhibitory activity (order of magnitude) (HDAC): mM order
